In general, IC50 refers to the concentration needed to halve the response being measured.

For one assay, the target named is T1, human recombinant HDAC1 (Homo sapiens, UniProt Q13547).
T1 construct: purchased Enzo Life Science BML-SE456
Put plainly: HDAC1 enzyme activity inhibition assay (HDAC Fluorimetric Drug Discovery Kit). The settings on record: human recombinant HDAC1, 10 μM substrate, 30° C. 60 minutes. In kind it is biochemical. In outline: (§1)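 IC50s derived from fluorescence (Ex 360, Em 460) read after a 30-min developer step. Beforehand, compounds in 5-fold dilution series reacted 60 min at 30° C with 0.3 μg human recombinant enzyme and 10 μM Fluor de Lys-SIRT1 substrate.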

In a further assay the target is T2, human recombinant HDAC6 (Homo sapiens, UniProt Q9UBN7).
T2 construct: purchased Calbiochem 382180
T2 sequence (Q9UBN7 1-1215): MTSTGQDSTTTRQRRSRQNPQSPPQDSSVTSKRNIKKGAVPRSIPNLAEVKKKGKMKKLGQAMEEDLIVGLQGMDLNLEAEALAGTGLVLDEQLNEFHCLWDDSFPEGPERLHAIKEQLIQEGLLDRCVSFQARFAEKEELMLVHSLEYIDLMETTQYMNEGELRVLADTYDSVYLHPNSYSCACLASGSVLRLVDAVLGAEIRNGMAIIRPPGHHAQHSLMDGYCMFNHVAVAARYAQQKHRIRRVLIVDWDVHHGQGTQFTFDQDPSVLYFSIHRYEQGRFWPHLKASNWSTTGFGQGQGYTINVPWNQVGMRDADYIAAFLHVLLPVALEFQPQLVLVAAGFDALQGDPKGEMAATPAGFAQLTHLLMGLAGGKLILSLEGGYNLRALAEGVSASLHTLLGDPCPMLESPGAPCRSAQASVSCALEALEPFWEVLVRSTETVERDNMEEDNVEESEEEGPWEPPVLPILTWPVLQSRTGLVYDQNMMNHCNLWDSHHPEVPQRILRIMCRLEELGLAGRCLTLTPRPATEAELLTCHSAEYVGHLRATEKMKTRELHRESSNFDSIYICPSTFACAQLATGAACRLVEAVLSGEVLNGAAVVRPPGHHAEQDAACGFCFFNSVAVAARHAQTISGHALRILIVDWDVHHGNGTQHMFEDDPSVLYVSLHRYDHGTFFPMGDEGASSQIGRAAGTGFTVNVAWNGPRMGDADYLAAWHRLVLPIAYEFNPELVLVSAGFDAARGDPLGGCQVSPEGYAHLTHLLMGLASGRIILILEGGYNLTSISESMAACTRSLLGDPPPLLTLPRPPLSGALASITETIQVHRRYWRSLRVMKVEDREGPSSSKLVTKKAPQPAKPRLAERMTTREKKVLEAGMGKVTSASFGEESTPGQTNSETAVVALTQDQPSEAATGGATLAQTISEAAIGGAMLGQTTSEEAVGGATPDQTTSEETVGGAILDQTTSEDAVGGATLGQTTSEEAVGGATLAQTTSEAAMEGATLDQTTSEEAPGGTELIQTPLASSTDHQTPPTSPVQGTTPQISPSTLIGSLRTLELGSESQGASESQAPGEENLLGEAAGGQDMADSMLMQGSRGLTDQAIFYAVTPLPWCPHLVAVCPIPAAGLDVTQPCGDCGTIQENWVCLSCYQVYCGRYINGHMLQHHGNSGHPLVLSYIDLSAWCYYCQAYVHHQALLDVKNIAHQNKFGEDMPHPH
Nature of the assay: HDAC6 enzyme activity inhibition assay (HDAC Fluorimetric Drug Discovery Kit). In kind it is biochemical. As to conditions: 30° C. 60 minutes. In outline:
as §1

Molecules are shown by their SMILES.

T1 sequence (Q13547 whole entry): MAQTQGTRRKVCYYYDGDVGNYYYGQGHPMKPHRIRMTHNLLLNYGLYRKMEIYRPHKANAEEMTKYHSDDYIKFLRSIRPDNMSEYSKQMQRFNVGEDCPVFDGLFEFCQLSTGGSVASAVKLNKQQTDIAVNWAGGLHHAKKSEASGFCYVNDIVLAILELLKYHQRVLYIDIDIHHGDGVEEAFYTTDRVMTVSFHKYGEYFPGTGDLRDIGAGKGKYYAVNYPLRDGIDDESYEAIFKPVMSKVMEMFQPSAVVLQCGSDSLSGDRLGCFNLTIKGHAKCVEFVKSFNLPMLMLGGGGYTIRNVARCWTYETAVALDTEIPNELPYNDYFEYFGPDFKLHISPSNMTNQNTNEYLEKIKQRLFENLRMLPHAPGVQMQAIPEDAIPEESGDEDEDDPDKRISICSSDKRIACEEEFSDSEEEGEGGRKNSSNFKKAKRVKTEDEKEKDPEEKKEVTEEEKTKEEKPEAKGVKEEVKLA

As for `FC(F)c1nnc(-c2cnc(NC3(c4ccccc4)CCCCC3)nc2)o1` [Compound 1581, 5-(5-(difluoromethyl)-1,3,4-oxadiazol-2-yl)-N-(1-phenylcyclohexyl)pyrimidin-2-amine], the IC50 is over 10000 nM on human recombinant HDAC1 and 135 nM on human recombinant HDAC6.
On the same counts, the results for `CCN1CCC(c2ccc(C3(Nc4ncc(-c5nnc(C(F)F)o5)cn4)CCC3)cc2)CC1` [Compound 2036, 5-(5-(difluoromethyl)-1,3,4-oxadiazol-2-yl)-N-(1-(4-(1-ethylpiperidin-4-yl)phenyl)cyclobutyl)pyrimidin-2-amine] are over 10000 nM and 478 nM.
The matching figures for `Fc1ccc(C2(Nc3ncc(-c4nnc(C(F)(F)F)o4)cn3)CCC2)cc1Cl` [Compound 1818, N-(1-(3-chloro-4-fluorophenyl)cyclobutyl)-5-(5-(trifluoromethyl)-1,3,4-oxadiazol-2-yl)pyrimidin-2-amine]: over 10000 nM and 751 nM.
With `COc1ccccc1C1(Nc2ncc(-c3nnc(C(F)F)o3)cn2)CC1` [Compound 2047, 5-(5-(difluoromethyl)-1,3,4-oxadiazol-2-yl)-N-(1-(2-methoxyphenyl)cyclopropyl)pyrimidin-2-amine], the IC50 was over 10000 nM at human recombinant HDAC1 and 32 nM at human recombinant HDAC6.
On to `FC(F)(F)c1nnc(-c2cnc(NC3(c4ccccc4)CCCC3)nc2)o1` [Compound 1580, N-(1-phenylcyclopentyl)-5-(5-(trifluoromethyl)-1,3,4-oxadiazol-2-yl)pyrimidin-2-amine], for which the IC50 at human recombinant HDAC1 was over 10000 nM; on human recombinant HDAC6, 305 nM.
On the same counts, the results for `Fc1cc(F)c(C2(Nc3ncc(-c4nnc(C(F)F)o4)cn3)CCC2)cc1F` [Compound 1826, 5-(5-(difluoromethyl)-1,3,4-oxadiazol-2-yl)-N-(1-(2,4,5-trifluorophenyl)cyclobutyl)pyrimidin-2-amine] are over 10000 nM and 120 nM.
The matching figures for `Fc1ccc(C2(Nc3ncc(-c4nnc(C(F)F)o4)cn3)CC2)cc1F` [Compound 2058, 5-(5-(difluoromethyl)-1,3,4-oxadiazol-2-yl)-N-(1-(3,4-difluorophenyl)cyclopropyl)pyrimidin-2-amine]: over 10000 nM and 39 nM.
On the same counts, the results for `FC(F)c1nnc(-c2cnc(NC3(c4cccnc4)CCC3)nc2)o1` [Compound 1913, 5-(5-(difluoromethyl)-1,3,4-oxadiazol-2-yl)-N-(1-(pyridin-3-yl)cyclobutyl)pyrimidin-2-amine] are over 10000 nM and 40 nM.
Take `Fc1ccc(Cl)cc1C1(Nc2ncc(-c3nnc(C(F)F)o3)cn2)CCC1` [Compound 1963, N-(1-(5-chloro-2-fluorophenyl)cyclobutyl)-5-(5-(difluoromethyl)-1,3,4-oxadiazol-2-yl)pyrimidin-2-amine]: the results for the half-maximal inhibitory concentration (IC50) on human recombinant HDAC1 and at human recombinant HDAC6 were over 10000 nM and 89 nM, respectively.
With `FC(F)c1nnc(-c2cnc(NC3(c4ccc(Cl)cc4)CC3)nc2)o1` [Compound 2052, N-(1-(4-chlorophenyl)cyclopropyl)-5-(5-(difluoromethyl)-1,3,4-oxadiazol-2-yl)pyrimidin-2-amine], the half-inhibitory concentration (IC50) at human recombinant HDAC1 is over 10000 nM; at human recombinant HDAC6, 75 nM.
With `FC(F)c1nnc(-c2cnc(NC3(c4ccc(C(F)(F)F)cc4)CCC3)nc2)o1` [Compound 2043, 5-(5-(difluoromethyl)-1,3,4-oxadiazol-2-yl)-N-(1-(4-(trifluoromethyl)phenyl)cyclobutyl)pyrimidin-2-amine], the figures for the IC50 at human recombinant HDAC1 and at human recombinant HDAC6 were over 10000 nM and 277 nM, respectively.
The matching figures for `Fc1cc(F)cc(C2(Nc3ncc(-c4nnc(C(F)F)o4)cn3)CCC2)c1` [Compound 1819, 5-(5-(difluoromethyl)-1,3,4-oxadiazol-2-yl)-N-(1-(3,5-difluorophenyl)cyclobutyl)pyrimidin-2-amine]: over 10000 nM and 70 nM.
The matching figures for `FC(F)c1nnc(-c2cnc(NC3(c4cccs4)CC3)nc2)o1` [Compound 2040, 5-(5-(difluoromethyl)-1,3,4-oxadiazol-2-yl)-N-(1-(thiophen-2-yl)cyclopropyl)pyrimidin-2-amine]: over 10000 nM and 100 nM.
The matching figures for `FC(F)(F)c1nnc(-c2cnc(NC3(c4ccccn4)CCC3)nc2)o1` [Compound 1641, N-(1-(pyridin-2-yl)cyclobutyl)-5-(5-(trifluoromethyl)-1,3,4-oxadiazol-2-yl)pyrimidin-2-amine]: over 10000 nM and 58 nM.
Consider `Cc1ccc(S(=O)(=O)CC2(Nc3ncc(-c4nnc(C(F)F)o4)cn3)CCC2)cc1` [Compound 2026, 5-(5-(difluoromethyl)-1,3,4-oxadiazol-2-yl)-N-(1-(tosylmethyl)cyclobutyl)pyrimidin-2-amine], for which the IC50 on human recombinant HDAC1 and on human recombinant HDAC6 was over 10000 nM each time.
As for `Fc1ccc(C2(Nc3ncc(-c4nnc(C(F)F)o4)cn3)CCC2)cc1` [Compound 1611, 5-(5-(difluoromethyl)-1,3,4-oxadiazol-2-yl)-N-(1-(4-fluorophenyl)cyclobutyl)pyrimidin-2-amine], the IC50 at human recombinant HDAC1 is over 10000 nM; at human recombinant HDAC6, 38 nM.
On the same counts, the results for `FC(F)(F)c1cccc(C2(Nc3ncc(-c4nnc(C(F)(F)F)o4)cn3)CCC2)c1` [Compound 1670, 5-(5-(trifluoromethyl)-1,3,4-oxadiazol-2-yl)-N-(1-(3-(trifluoromethyl)phenyl)cyclobutyl)pyrimidin-2-amine] are over 10000 nM and 596 nM.
As for `FC(F)(F)c1nnc(-c2cnc(NC3(c4ccc(Cl)cc4)CC3)nc2)o1` [Compound 2053, N-(1-(4-chlorophenyl)cyclopropyl)-5-(5-(trifluoromethyl)-1,3,4-oxadiazol-2-yl)pyrimidin-2-amine], the IC50 on human recombinant HDAC1 was over 10000 nM; at human recombinant HDAC6, 519 nM.
The matching figures for `FC(F)c1nnc(-c2cnc(NC3(c4ccc(C5CCN(C6COC6)CC5)cc4)CCC3)nc2)o1` [Compound 2023, 5-(5-(difluoromethyl)-1,3,4-oxadiazol-2-yl)-N-(1-(4-(1-(oxetan-3-yl)piperidin-4-yl)phenyl)cyclobutyl)pyrimidin-2-amine]: over 10000 nM and 387 nM.
As to `COc1cccc(C2(Nc3ncc(-c4nnc(C(F)(F)F)o4)cn3)CCC2)c1` [Compound 1606, N-(1-(3-methoxyphenyl)cyclobutyl)-5-(5-(trifluoromethyl)-1,3,4-oxadiazol-2-yl)pyrimidin-2-amine], the IC50 at human recombinant HDAC1 was over 10000 nM; at human recombinant HDAC6, 168 nM.
With `COc1cccc(C2(Nc3ncc(-c4nnc(C(F)F)o4)cn3)CCC2)c1` [Compound 1605, 5-(5-(difluoromethyl)-1,3,4-oxadiazol-2-yl)-N-(1-(3-methoxyphenyl)cyclobutyl)pyrimidin-2-amine], the results for the IC50 at human recombinant HDAC1 and on human recombinant HDAC6 were over 10000 nM and 44 nM, respectively.
On the same counts, the results for `Cc1cccc(C2(Nc3ncc(-c4nnc(C(F)F)o4)cn3)CCC2)c1` [Compound 1673, 5-(5-(difluoromethyl)-1,3,4-oxadiazol-2-yl)-N-(1-(m-tolyl)cyclobutyl)pyrimidin-2-amine] are over 10000 nM and 25 nM.
On the same counts, the results for `FC(F)c1nnc(-c2cnc(NC3(c4ccccc4)CCCC3)nc2)o1` [Compound 1579, 5-(5-(difluoromethyl)-1,3,4-oxadiazol-2-yl)-N-(1-phenylcyclopentyl)pyrimidin-2-amine] are over 10000 nM and 46 nM.
On the same counts, the results for `Fc1ccc(C2(Nc3ncc(-c4nnc(C(F)F)o4)cn3)CC2)c(F)c1` [Compound 2061, 5-(5-(difluoromethyl)-1,3,4-oxadiazol-2-yl)-N-(1-(2,4-difluorophenyl)cyclopropyl)pyrimidin-2-amine] are over 10000 nM and 43 nM.
For `FC(F)c1nnc(-c2cnc(NC3(c4ccc(N5CCOCC5)cc4)CCC3)nc2)o1` [Compound 2062, 5-(5-(difluoromethyl)-1,3,4-oxadiazol-2-yl)-N-(1-(4-morpholinophenyl)cyclobutyl)pyrimidin-2-amine], the IC50 on human recombinant HDAC1 was over 10000 nM; on human recombinant HDAC6 it was 256 nM.

The record behind these values is patent US10494355B2, “Oxadiazole amine derivative compounds as histone deacetylase 6 inhibitor, and the pharmaceutical composition comprising the same” (Chong Kun Dang Pharmaceutical Corp., priority 2015, dated 2019).
